Assay results: US7439263B2, “Pyrrolidine and thiazolidine compounds” (Les Laboratoires Servier, priority 2004, dated 2008)
Structures can show the parent of a compound that is named as a salt.

target: T1, Dipeptidyl-Peptidase IV (DPP IV) (Sus scrofa, UniProt P22411); test: Inhibition of dipeptidyl-peptidase IV in pig kidney (Gly-Pro-pNA cleavage, absorbance at 405 nm); assay type: biochemical; details: pig kidney membrane preparation; substrate Gly-Pro-pNA; 60 min at 37° C.; geometric mean of the IC50s
T1 construct: using 10 μl of the pig kidney preparation; from tissue; host or cells: pig kidney membrane fraction, solubilised with n-octyl-β-glucopyranoside
Protocol: Inhibition of Dipeptidyl-Peptidase IV in Pig Kidney
Preparation of the Membrane Fraction of Pig Kidney
Pig kidney tissue (large white pig, 2 to 3 months' old) was homogenised (5 g of tissue in 15 ml of Tris buffer (114 mM, pH 7.8-8)) and then centrifuged at 150000×g for 30 min. at 4° C. The pellet was taken up in 15 ml of buffer and re-centrifuged at 150000×g for 30 min. at 4° C. With stirring, the resulting pellet was dissolved in 15 ml of buffer with 60 mM n-octyl-β-glucopyranoside for 30 min. at ambient temperature. After centrifugation at 150000×g for 30 min. at 4° C., the supernatant was dialysed (MWCO 12-14000) against 114 mM Tris pH 7.8-8, and then divided into aliquots at —80° C.
Measurement of Dipetidyl Peptidase IV (DPP IV) Activity
The enzymatic activity is measured by cleavage of a chromogenic substrate, glycyl-prolyl-p-nitroanilide (Gly-Pro-pNA), giving Gly-Pro and pNA (p-nitroaniline); the latter is detected by absorbance at 405 nm. The activity is measured in the absence (control) or in the presence of 10 μl of the inhibitors, using 10 μl of the pig kidney preparation (0.81 mU, 1U=1 μmol of pNA product/min. at 37° C.). Incubation is started by adding the substrate (250 μl), dissolved in Tris buffer (114 mM) pH 7.8-8, over a period of 60 min. at 37° C. […] The results were expressed as a percentage of the control, and the IC50 values (effective dose for 50% inhibition of the control activity) were determined using non-linear analysis between 0 and 100%, (GraphPad Prism version 4.01 for Windows). Each measurement was carried out in quadruplicate and each IC50 determination was carried out from 1 to 5 times.
The results obtained (geometric mean of the IC50s) for the compounds representing the invention are compiled in the following Table: […]

T1 sequence (P22411 whole entry): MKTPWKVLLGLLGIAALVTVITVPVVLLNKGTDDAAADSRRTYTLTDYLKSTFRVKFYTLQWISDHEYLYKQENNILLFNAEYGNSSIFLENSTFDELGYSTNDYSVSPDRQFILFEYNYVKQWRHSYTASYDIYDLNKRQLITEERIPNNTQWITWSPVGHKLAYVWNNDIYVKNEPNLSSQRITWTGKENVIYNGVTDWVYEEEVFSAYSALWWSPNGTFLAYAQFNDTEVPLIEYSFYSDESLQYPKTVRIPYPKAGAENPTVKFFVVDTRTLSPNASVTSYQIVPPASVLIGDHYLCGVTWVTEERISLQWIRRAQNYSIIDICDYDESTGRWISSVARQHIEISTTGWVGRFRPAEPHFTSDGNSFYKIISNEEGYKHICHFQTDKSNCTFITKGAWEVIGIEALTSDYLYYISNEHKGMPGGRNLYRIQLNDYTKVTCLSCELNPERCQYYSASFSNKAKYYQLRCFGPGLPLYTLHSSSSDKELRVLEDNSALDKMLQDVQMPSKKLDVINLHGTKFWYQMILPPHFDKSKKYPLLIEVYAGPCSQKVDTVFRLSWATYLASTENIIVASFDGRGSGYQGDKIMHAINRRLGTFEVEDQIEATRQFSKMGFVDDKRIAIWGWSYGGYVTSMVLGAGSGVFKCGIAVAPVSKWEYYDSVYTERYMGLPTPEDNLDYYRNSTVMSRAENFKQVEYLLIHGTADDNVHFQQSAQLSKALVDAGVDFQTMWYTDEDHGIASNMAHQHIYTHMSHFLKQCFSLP

Structure (SMILES) | IC50 [nM]
N#C[C@@H]1C[C@H](F)CN1C(=O)CNC1(CO)CCC2(CCOCC2)CC1 [Example 29, (2S,4S)4-Fluoro-1-({[9-(hydroxymethyl)-3-oxaspiro[5.5]undec-9-yl]-amino}acetyl)-2-pyrrolidinecarbonitrile] | 31.6
N#C[C@@H]1CCCN1C(=O)CNC1CCC2(CCNCC2)CC1 [Example 20, (2S)-1-[(3-Azaspiro[5.5]undec-9-ylamino)acetyl]-2-pyrrolidine-carbonitrile bis(trifluoroacetate)] | 73.1
N#C[C@@H]1CCCN1C(=O)CNC1CCC2(CCSCC2)CC1 [Example 23, (2S)-1-[(3-Thiaspiro[5.5]undec-9-ylamino)acetyl]-2-pyrrolidine-carbonitrile hydrochloride] | 27
N#C[C@@H]1CC(F)(F)CN1C(=O)CNC1(CO)CCC2(CCOCC2)CC1 [Example 30, (2S)-4,4-Difluoro-1-({[9-(hydroxymethyl)-3-oxaspiro[5.5]undec-9-yl]amino}acetyl)-2-pyrrolidinecarbonitrile] | 20.5
N#C[C@@H]1CCCN1C(=O)CNC1(CO)CC2(CCCC2)C1 [Example 17, (2S)-1-({[2-(Hydroxymethyl)spiro[3.4]oct-2-yl]amino}acetyl)-2-pyrrolidinecarbonitrile hydrochloride] | 43.6
N#C[C@@H]1CCCN1C(=O)CNC1(CO)CCC2(CCCCC2)CC1 [Example 5, (2S)-1-({[3-(Hydroxymethyl)spiro[5.5]undec-3-yl]amino}acetyl)-2-pyrrolidinecarbonitrile] | 68.5
N#C[C@@H]1CCCN1C(=O)CNC1(CO)CCC2(CCOCC2)CC1 [Example 1, (2S)-1-({[9-(Hydroxymethyl)-3-oxaspiro[5.5]undec-9-yl]amino}-acetyl)-2-pyrrolidinecarbonitrile] | 76.1

More lines, now with the values ahead:

IC50 [nM] | Structure (SMILES)
23 | N#C[C@@H]1CCCN1C(=O)CNC1CCC2(CC1)CCC1(CCCCC1)CC2 [Example 8, (2S)-1-[(Dispiro[5.2.5.2]hexadec-3-ylamino)acetyl]-2-pyrrolidine-carbonitrile]
171 | N#C[C@@H]1CCCN1C(=O)CNC1CCC2(CC1)CC2 [Example 28, (2S)-1-[(Spiro[2.5]oct-6-ylamino)acetyl]-2-pyrrolidinecarbonitrile]
27.2 | N#C[C@@H]1CCCN1C(=O)CNC1CCC2(CCCCCCC2)CC1 [Example 6, (2S)-1-[(Spiro[5.7]tridec-3-ylamino)acetyl]-2-pyrrolidinecarbonitrile hydrochloride]
3.5 | N#C[C@@H]1CSCN1C(=O)CNC1CCC2(CCCCC2)CC1 [Example 18, (4R)-3-[(Spiro[5.5]undec-3-yl-amino)acetyl]-1,3-thiazolidine-4-carbonitrile trifluoroacetate]
